Earlier results as cited in patent publication US20020055528A1, “Artemisinin analogs having antimalarial, antiproliferative, and antitumor activities and chemoselective methods of making the same” (priority 1999, published 2002).

Key:
P. falciparum = details: two Hanian strains; compared with chloroquine; cited from earlier work
60 cell line panel = details: 60 lines, nine subpanels; later anticancer studies; cited from earlier work
[1] = test system: P. vivax and P. falciparum; details: 2099 cases of malaria, different dosage forms; cited from earlier work
P388 leukemia = details: NCI Report on NSC 369397; cited from earlier work

In the case of `C[C@@H]1CC[C@H]2[C@@H](C)C(=O)O[C@@H]3O[C@]4(C)CC[C@@H]1[C@]32OO4` [Artemisinin, artemisinin], the potency in words (P. falciparum) is listed as “comparable to that of chloroquine”, the “anticancer activity in words” value (60 cell line panel) is listed as “very little anticancer activity” and the clinical outcome [1] is listed as “clinical cure of all patients”. The activity in words (P388 leukemia) was “inactive”.
